Results on three compounds are retold here after patent US20220146492A1, “CELL MEMBRANE PERMEABILITY RESTORING THERAPY” (priority 2019, published 2022).

The subject of the experiment is RBCs. The experiment in a line: Cell scan of RBC membrane permeability (Pk0) after contacting whole blood from a healthy volunteer with an agent. The format is cell-based, human. Particulars: for Induction of water permeability resistance (decreased RBC membrane permeability to water): agents at concentrations consistent with in vivo concentration; for Pk0 (mOsm/kg): whole blood in ACD, healthy volunteer, measured after exposure (method: five minutes), lactose 1:20 (v/v) saturated lactose solution, amphotericin B 0.5 μg/mL. The procedure: A sample of whole blood from a healthy volunteer was drawn into ACD anticoagulant. The unwashed sample was divided into aliquots and was analyzed using the Prior Shine Technology and/or the Provided Cell Scanning Technologies. The following outputs were obtained from the sample:
Using the technologies described herein, a cell-by-cell analysis was converted into a plot of percent change of cell volume vs. osmolality (“Cell Scan Plot”) by converting the individual peak voltage into a cell volume, then calculating a mean volume for an aliquot of cells, and plotting the means to generate the Cell Scan Plot. The percentage change of cell volume at each osmolality is calculated and compared to the mean cell volume of an isotonic cell (e.g., FIG. 1b). On such a plot, Pk0 (see 101) is the osmotic pressure at which the net water flow is zero (i.e., when a cell achieved its maximum volume, i.e., when it is a perfect sphere). As described herein, in some embodiments, Pk0 can be used as an indicator of an individual's health status.
A sample of whole blood from a healthy volunteer was drawn into ACD anticoagulant. Blood samples were divided into aliquots, and each sample was contacted with an agent at concentrations consistent with the agent's in vivo concentration. Agents that were tested included alcohols, alpha fetoproteins, amphotericin B, bovine albumen, carcinoembryonic antigen (CEA), concanavalin A (Con A), fetuin, fibronectin, 5-HT, kallikrein, ovomucoid, prostacyclin, prostaglandin, semen, transferrin, and several sugars, including N-acetyl-D-glucosamine, N-acetyl neurominic acid, 2-deoxy-D-ribose, fructose, D- and L-arabinose, beta-D-galactopyranoside, erythrose, D- and L-fucose, D- and L-glucose, D-galactose, lactose, maltose, iso-maltose, D-mannose, mannitol, L-rhamnose, ribose, sucrose, and D-xylose. Five minutes after exposure to an agent, the blood sample was evaluated for cell membrane permeability and Pk0 was measured. […] Lactose ([…]) lowered Pk0 to 110 mOsm/kg.
A sample of whole blood from a healthy volunteer was drawn into ACD anticoagulant. The sample was then treated with 5-HT (900 ng/mL), and cell membrane permeability was evaluated 5 minutes after treatment.

Regarding `C[C@@H]1[C@H](O)[C@@H](C)/C=C/C=C/C=C/C=C/C=C/C=C/C=C/[C@H](O[C@@H]2O[C@H](C)[C@@H](O)[C@H](N)[C@@H]2O)C[C@@H]2O[C@](O)(C[C@@H](O)C[C@@H](O)[C@H](O)CC[C@@H](O)C[C@@H](O)CC(=O)O[C@H]1C)C[C@H](O)[C@H]2C(=O)O` [Amphotericin B], the “Induction of water permeability resistance (decreased RBC membrane permeability to water)” value was “identified as RBC membrane permeability decreasing agents”. Further, the “Pk0 (mOsm/kg)” value (5-HT 900 ng/mL) is 85 mOsm/kg.

As to `OC[C@H]1O[C@@H](O[C@H]2[C@H](O)[C@@H](O)C(O)O[C@@H]2CO)[C@H](O)[C@@H](O)[C@H]1O` (stereo partly drawn) [Lactose], the “Induction of water permeability resistance (decreased RBC membrane permeability to water)” value is recorded as “identified as RBC membrane permeability decreasing agents”. In addition, the “Pk0 lowered to” value (after 10 minutes) came out at 110 mOsm/kg. Further, the “Pk0 (mOsm/kg)” value (5-HT 900 ng/mL) is reported as 110 mOsm/kg.

In the case of `NCCc1c[nH]c2ccc(O)cc12` [Agent 5-HT, 5-hydroxytryptamine], the “Induction of water permeability resistance (decreased RBC membrane permeability to water)” value is “effective within minutes”. The “Pk0 after treatment with 5-HT” value (5-HT 900 ng/mL, 5 minutes after treatment, normal Pk0 before approx. 140 mOsm/kg (FIG. 8)) is recorded as “approx. 110 mOsm/kg”. Moreover, the “Pk0 shift after contacting with 5-HT” value (FIG. 8, RBCs from normal healthy individual, before vs after 5-HT) was “approx. 30 mOsm/kg”. Besides, where the note is “5-HT 900 ng/mL”, the “Pk0 (mOsm/kg)” value was determined as 110 mOsm/kg.
